In the NIST ThermoML archive (doi:10.1016/j.jct.2013.07.008):

What was measured:
[1] = refractive index (Na D-line) (dimensionless); wn = mass fraction of the nth substance listed; conditions: 101 kPa, Liquid, Standard Abbe refractometry
[2] = wn = mass fraction of the nth substance listed; conditions: for surface tension liquid-gas: Maximal bubble pressure; for mass density: 101 kPa, Liquid, Buoyancy - hydrostatic balance

CC(O)C(=O)[O-].CCCCCn1cc[n+](C)c1 [1-pentyl-3-methylimidazolium lactate] + O
Conditions	mass density, [2] [kg/m3]	refractive index, [1]	surface tension liquid-gas, [2] [mN/m]
288.15 K, w2 = 0.0081	–	1.4933	–
288.15 K, w2 = 0.0086	1116.6	–	43.7
288.15 K, w2 = 0.0102	–	1.4931	–
288.15 K, w2 = 0.0106	1117.4	–	43.8
288.15 K, w2 = 0.0129	1118.6	1.4929	44
288.15 K, w2 = 0.0153	–	1.4927	–
288.15 K, w2 = 0.0163	1120.3	–	44.3
288.15 K, w2 = 0.0199	–	1.4923	–
288.15 K, w2 = 0.021	1122.4	–	44.6
293.15 K, w2 = 0.0081	–	1.492	–
293.15 K, w2 = 0.0086	1113.1	–	43.3
293.15 K, w2 = 0.0102	–	1.4918	–
293.15 K, w2 = 0.0106	1113.9	–	43.4
293.15 K, w2 = 0.0129	1115.2	1.4916	43.6
293.15 K, w2 = 0.0153	–	1.4913	–
293.15 K, w2 = 0.0163	1116.8	–	43.9
293.15 K, w2 = 0.0199	–	1.4909	–
293.15 K, w2 = 0.021	1119	–	44.2
303.15 K, w2 = 0.0081	–	1.4894	–
303.15 K, w2 = 0.0086	1106.8	–	42.6
303.15 K, w2 = 0.0102	–	1.4892	–
303.15 K, w2 = 0.0106	1107.6	–	42.7
303.15 K, w2 = 0.0129	1108.8	1.489	42.9
303.15 K, w2 = 0.0153	–	1.4888	–
303.15 K, w2 = 0.0163	1110.5	–	43.2
303.15 K, w2 = 0.0199	–	1.4884	–
303.15 K, w2 = 0.021	1112.7	–	43.5
308.15 K, w2 = 0.0081	–	1.4883	–
308.15 K, w2 = 0.0086	1103.6	–	42.2
308.15 K, w2 = 0.0102	–	1.4881	–
308.15 K, w2 = 0.0106	1104.3	–	42.3
308.15 K, w2 = 0.0129	1105.6	1.4879	42.5
308.15 K, w2 = 0.0153	–	1.4876	–
308.15 K, w2 = 0.0163	1107.3	–	42.8
308.15 K, w2 = 0.0199	–	1.4872	–
308.15 K, w2 = 0.021	1109.5	–	43.2
313.15 K, w2 = 0.0081	–	1.4869	–
313.15 K, w2 = 0.0086	1099.9	–	41.9
313.15 K, w2 = 0.0102	–	1.4867	–
313.15 K, w2 = 0.0106	1100.7	–	42
313.15 K, w2 = 0.0129	1102.1	1.4865	42.2
313.15 K, w2 = 0.0153	–	1.4863	–
313.15 K, w2 = 0.0163	1104	–	42.5
313.15 K, w2 = 0.0199	–	1.486	–
313.15 K, w2 = 0.021	1106.4	–	42.9
318.15 K, w2 = 0.0081	–	1.4857	–
318.15 K, w2 = 0.0086	1097.1	–	41.6
318.15 K, w2 = 0.0102	–	1.4855	–
318.15 K, w2 = 0.0106	1097.8	–	41.8
318.15 K, w2 = 0.0129	1099.1	1.4853	41.9
318.15 K, w2 = 0.0153	–	1.4851	–
318.15 K, w2 = 0.0163	1100.8	–	42.2
318.15 K, w2 = 0.0199	–	1.4847	–
318.15 K, w2 = 0.021	1103	–	42.6
323.15 K, w2 = 0.0081	–	1.4845	–
323.15 K, w2 = 0.0086	1093.9	–	41.2
323.15 K, w2 = 0.0102	–	1.4844	–
323.15 K, w2 = 0.0106	1094.6	–	41.4
323.15 K, w2 = 0.0129	1095.8	1.4842	41.5
323.15 K, w2 = 0.0153	–	1.4841	–
323.15 K, w2 = 0.0163	1097.5	–	41.8
323.15 K, w2 = 0.0199	–	1.4838	–
323.15 K, w2 = 0.021	1099.6	–	42.2
328.15 K, w2 = 0.0081	–	1.4833	–
328.15 K, w2 = 0.0086	1090.5	–	40.8
328.15 K, w2 = 0.0102	–	1.4831	–
328.15 K, w2 = 0.0106	1091.2	–	41
328.15 K, w2 = 0.0129	1092.5	1.4829	41.1
328.15 K, w2 = 0.0153	–	1.4826	–
328.15 K, w2 = 0.0163	1094.1	–	41.4
328.15 K, w2 = 0.0199	–	1.4822	–
328.15 K, w2 = 0.021	1096.4	–	41.8
333.15 K, w2 = 0.0081	–	1.482	–
333.15 K, w2 = 0.0086	1087.4	–	40.5
333.15 K, w2 = 0.0102	–	1.4818	–
333.15 K, w2 = 0.0106	1088.1	–	40.7
333.15 K, w2 = 0.0129	1089.3	1.4816	40.8
333.15 K, w2 = 0.0153	–	1.4814	–
333.15 K, w2 = 0.0163	1091	–	41.1
333.15 K, w2 = 0.0199	–	1.481	–
333.15 K, w2 = 0.021	1093.2	–	41.5
